From PMC5218480 (PLoS ONE, 2017) come the findings set out here.

For the experiment, the system named is MV-4-11 cells. The experiment in a line: Gene expression microarray analysis (Affymetrix PrimeView) and GSEA. In kind it is cell-based, human. Also noted: RFU PODN (11730768_x_at) / Fold change /veh PODN (11730768_x_at) / RFU LINC00158 (11744669_a_at) / Fold change /veh LINC00158 (11744669_a_at) / RFU DUSP10 (11751237_a_at) / Fold change /veh DUSP10 (11751237_a_at) / RFU ID3 (11757404_x_at) / Fold change /veh ID3 (11757404_x_at) / RFU PLEKHG5 (11737974_s_at) / Fold change /veh PLEKHG5 (11737974_s_at) / RFU LRRC4B (11730491_at) / Fold change /veh LRRC4B (11730491_at) / RFU GIMAP4 (11747438_a_at) / Fold change /veh GIMAP4 (11747438_a_at) / RFU KRT8 (11758183_x_at) / Fold change /veh KRT8 (11758183_x_at) / RFU CNN1 (11734310_a_at) / Fold change /veh CNN1 (11734310_a_at) / RFU VPS37D (11726825_at) / Fold change /veh VPS37D (11726825_at) / RFU C10orf10 (11716522_x_at) / Fold change /veh C10orf10 (11716522_x_at) / RFU KIR2DL2 /// KIR2DL4 /// KIR2DL5A /// KIR2DL5B /// KIR2DS1 /// KIR2DS2 /// KIR2DS3 /// KIR2DS4 /// KIR3DL3 /// KIR3DL3 /// KIR3DS1 (11738374_at) / Fold change /veh KIR2DL2 /// KIR2DL4 /// KIR2DL5A /// KIR2DL5B /// KIR2DS1 /// KIR2DS2 /// KIR2DS3 /// KIR2DS4 /// KIR3DL3 /// KIR3DL3 /// KIR3DS1 (11738374_at) / RFU C1QL1 (11718748_at) / Fold change /veh C1QL1 (11718748_at) / RFU TMPRSS4 (11747572_a_at) / Fold change /veh TMPRSS4 (11747572_a_at) / RFU HAMP (11756126_x_at) / Fold change /veh HAMP (11756126_x_at) / RFU RNFT2 (11725882_a_at) / Fold change /veh RNFT2 (11725882_a_at) / RFU NR4A2 (11747474_a_at) / Fold change /veh NR4A2 (11747474_a_at) / RFU ABCC12 (11746883_a_at) / Fold change /veh ABCC12 (11746883_a_at) / RFU TMEM136 (11760407_x_at) / Fold change /veh TMEM136 (11760407_x_at) / RFU CLDN22 /// WWC2 (11732394_at) / Fold change /veh CLDN22 /// WWC2 (11732394_at) / RFU HLA-DPB1 (11760878_x_at) / Fold change /veh HLA-DPB1 (11760878_x_at) / RFU SPINT1 (11716480_a_at) / Fold change /veh SPINT1 (11716480_a_at) / RFU GAP43 (11754022_s_at) / Fold change /veh GAP43 (11754022_s_at) / RFU A4GNT (11735810_at) / Fold change /veh A4GNT (11735810_at) / RFU PRB3 (11715151_x_at) / Fold change /veh PRB3 (11715151_x_at) / RFU TUBB4B (11761932_at) / Fold change /veh TUBB4B (11761932_at) / RFU CAPN14 (11732068_a_at) / Fold change /veh CAPN14 (11732068_a_at) / RFU TMCC2 (11721928_a_at) / Fold change /veh TMCC2 (11721928_a_at) / RFU IRGQ (11745062_a_at) / Fold change /veh IRGQ (11745062_a_at) / RFU FAM174B (11720279_a_at) / Fold change /veh FAM174B (11720279_a_at) / RFU TMPRSS4 (11748680_a_at) / Fold change /veh TMPRSS4 (11748680_a_at) / RFU FAM212B (11763350_a_at) / Fold change /veh FAM212B (11763350_a_at) / RFU PLEKHG5 (11743358_a_at) / Fold change /veh PLEKHG5 (11743358_a_at) / RFU ZSCAN30 (11745921_a_at) / Fold change /veh ZSCAN30 (11745921_a_at) / RFU CMKLR1 (11741424_a_at) / Fold change /veh CMKLR1 (11741424_a_at) / RFU LOC101060620 /// MAPK8IP1 (11723275_at) / Fold change /veh LOC101060620 /// MAPK8IP1 (11723275_at) / RFU SPTSSB (11747773_x_at) / Fold change /veh SPTSSB (11747773_x_at) / RFU PRSS12 (11739890_at) / Fold change /veh PRSS12 (11739890_at) / RFU BIN1 (11741810_x_at) / Fold change /veh BIN1 (11741810_x_at) / RFU WNT11 (11732464_a_at) / Fold change /veh WNT11 (11732464_a_at) / RFU C10orf10 (11716521_a_at) / Fold change /veh C10orf10 (11716521_a_at) / RFU C5orf56 (11738089_at) / Fold change /veh C5orf56 (11738089_at) / RFU CYB561 (11721691_x_at) / Fold change /veh CYB561 (11721691_x_at) / RFU ANKRD19P (11752326_a_at) / Fold change /veh ANKRD19P (11752326_a_at) / RFU OR2T12 /// OR2T33 /// OR2T8 (11738714_s_at) / Fold change /veh OR2T12 /// OR2T33 /// OR2T8 (11738714_s_at) / RFU VCAN (11748164_a_at) / Fold change /veh VCAN (11748164_a_at) / RFU JSRP1 (11732532_at) / Fold change /veh JSRP1 (11732532_at) / RFU KRTAP10-11 (11738290_x_at) / Fold change /veh KRTAP10-11 (11738290_x_at) / RFU MYO3A (11730013_a_at) / Fold change /veh MYO3A (11730013_a_at) / RFU EBF3 (11725865_a_at) / Fold change /veh EBF3 (11725865_a_at) / RFU CAMK2N1 (11719241_x_at) / Fold change /veh CAMK2N1 (11719241_x_at) / RFU C5orf56 (11738088_a_at) / Fold change /veh C5orf56 (11738088_a_at) / RFU OLFML3 (11715873_a_at) / Fold change /veh OLFML3 (11715873_a_at) / RFU LOC100653217 /// NTM (11731650_a_at) / Fold change /veh LOC100653217 /// NTM (11731650_a_at) / RFU MAPK11 (11762145_a_at) / Fold change /veh MAPK11 (11762145_a_at) / RFU FIZ1 (11724087_x_at) / Fold change /veh FIZ1 (11724087_x_at) / RFU OASL (11726364_x_at) / Fold change /veh OASL (11726364_x_at) / RFU SOX15 (11748057_x_at) / Fold change /veh SOX15 (11748057_x_at) / RFU CD79A (11719716_a_at) / Fold change /veh CD79A (11719716_a_at) / RFU HIST1H1D (11736915_at) / Fold change /veh HIST1H1D (11736915_at) / RFU CASKIN2 (11723855_a_at) / Fold change /veh CASKIN2 (11723855_a_at) / RFU LOC730098 (11760151_x_at) / Fold change /veh LOC730098 (11760151_x_at) / RFU OR4N2 (11742367_at) / Fold change /veh OR4N2 (11742367_at) / RFU PRRT2 (11749266_a_at) / Fold change /veh PRRT2 (11749266_a_at) / RFU SNX32 (11753110_a_at) / Fold change /veh SNX32 (11753110_a_at) / RFU CDHR5 (11726645_a_at) / Fold change /veh CDHR5 (11726645_a_at) / RFU RCAN1 (11760418_a_at) / Fold change /veh RCAN1 (11760418_a_at) / RFU FAM167A (11723789_a_at) / Fold change /veh FAM167A (11723789_a_at) / RFU FAM26E (11764081_at) / Fold change /veh FAM26E (11764081_at) / RFU ISYNA1 (11749810_s_at) / Fold change /veh ISYNA1 (11749810_s_at) / RFU ACY1 (11761880_at) / Fold change /veh ACY1 (11761880_at) / RFU 11764098_at / Fold change /veh 11764098_at / RFU SAMD14 (11745864_x_at) / Fold change /veh SAMD14 (11745864_x_at) / RFU NPB (11741838_a_at) / Fold change /veh NPB (11741838_a_at) / RFU TMPRSS6 (11731388_a_at) / Fold change /veh TMPRSS6 (11731388_a_at) / RFU KRTAP10-2 (11738614_at) / Fold change /veh KRTAP10-2 (11738614_at) / RFU ARHGAP8 /// PRR5-ARHGAP8 (11727945_x_at) / Fold change /veh ARHGAP8 /// PRR5-ARHGAP8 (11727945_x_at) / RFU KRTAP5-7 /// NADSYN1 (11734609_at) / Fold change /veh KRTAP5-7 /// NADSYN1 (11734609_at) / RFU RASL12 (11751679_a_at) / Fold change /veh RASL12 (11751679_a_at) / RFU CDKN2B (11736163_a_at) / Fold change /veh CDKN2B (11736163_a_at) / RFU PRF1 (11729649_at) / Fold change /veh PRF1 (11729649_at) / RFU, ZNF638 /// ZNF638-IT1 / Fold change vs veh, ZNF638 /// ZNF638-IT1 / RFU, PANK3 / Fold change vs veh, PANK3 / RFU, SH3YL1 / Fold change vs veh, SH3YL1 / RFU, ZEB2 / Fold change vs veh, ZEB2 / RFU, NRIP1 / Fold change vs veh, NRIP1 / RFU, PTTG1IP / Fold change vs veh, PTTG1IP / RFU, CAPN2 / Fold change vs veh, CAPN2 / RFU, MED14 / Fold change vs veh, MED14 / RFU, SNORA58 / Fold change vs veh, SNORA58 / RFU, C1orf63 / Fold change vs veh, C1orf63 / RFU, LRRFIP1 / Fold change vs veh, LRRFIP1 / RFU, NDUFAF7 / Fold change vs veh, NDUFAF7 / RFU, SLC12A2 / Fold change vs veh, SLC12A2 / RFU, IBTK / Fold change vs veh, IBTK / RFU, ESF1 / Fold change vs veh, ESF1 / Fold change vs veh, TMEM50B / RFU, TAOK1 / Fold change vs veh, TAOK1 / RFU, ACBD3 / Fold change vs veh, ACBD3 / RFU, TMA16 / Fold change vs veh, TMA16 / RFU, RWDD3 / Fold change vs veh, RWDD3 / RFU, BCAT1 / Fold change vs veh, BCAT1 / RFU, EDEM3 / Fold change vs veh, EDEM3 / RFU, TMEM33 / Fold change vs veh, TMEM33 / RFU, WDR75 / Fold change vs veh, WDR75 / RFU, AHCTF1 / Fold change vs veh, AHCTF1 / RFU, TFRC / Fold change vs veh, TFRC / RFU, ZDHHC17 / Fold change vs veh, ZDHHC17 / RFU, NOM1 / Fold change vs veh, NOM1 / RFU, ARL8B / Fold change vs veh, ARL8B / RFU, ZBTB11 / Fold change vs veh, ZBTB11 / RFU, TAMM41 / Fold change vs veh, TAMM41 / RFU, KIAA1704 /// LOC100996395 / Fold change vs veh, KIAA1704 /// LOC100996395 / RFU, ING1 / Fold change vs veh, ING1 / RFU, TRMT61B / Fold change vs veh, TRMT61B / RFU, FUBP3 / Fold change vs veh, FUBP3 / RFU, TP53 / Fold change vs veh, TP53 / RFU, TNKS2 / Fold change vs veh, TNKS2 / RFU, ZFP14 / Fold change vs veh, ZFP14 / RFU, ACTR2 / Fold change vs veh, ACTR2 / RFU, PPP3R1 / Fold change vs veh, PPP3R1 / RFU, PIK3R1 / Fold change vs veh, PIK3R1 / RFU, HNRNPA1 / Fold change vs veh, HNRNPA1 / RFU, RNF170 / Fold change vs veh, RNF170 / RFU, ZNF28 / Fold change vs veh, ZNF28 / RFU, RNGTT / Fold change vs veh, RNGTT / RFU, OGT / Fold change vs veh, OGT / RFU, BRD1 / Fold change vs veh, BRD1 / RFU, MARS / Fold change vs veh, MARS / RFU, ZNF655 / Fold change vs veh, ZNF655 / RFU, FAHD1 / Fold change vs veh, FAHD1 / RFU, BDP1 / Fold change vs veh, BDP1 / RFU, LRRCC1 / Fold change vs veh, LRRCC1 / RFU, ARID1A / Fold change vs veh, ARID1A / RFU, ZNF146 / Fold change vs veh, ZNF146 / RFU, ZNF330 / Fold change vs veh, ZNF330 / RFU, GPN3 / Fold change vs veh, GPN3 / RFU, C9orf123 / Fold change vs veh, C9orf123 / RFU, N4BP2L2 / Fold change vs veh, N4BP2L2 / RFU, ARFIP1 / Fold change vs veh, ARFIP1 / RFU, FAM179B / Fold change vs veh, FAM179B / RFU, BCL10 / Fold change vs veh, BCL10 / RFU, UHRF1BP1L / Fold change vs veh, UHRF1BP1L / RFU, BET1 / Fold change vs veh, BET1 / RFU, CNOT2 / Fold change vs veh, CNOT2 / RFU, ZNF268 / Fold change vs veh, ZNF268 / Fold change vs veh, ZNF507 / RFU, DGCR2 / Fold change vs veh, DGCR2 / RFU, WDSUB1 / Fold change vs veh, WDSUB1 / Fold change vs veh, HSP90B1 /// MIR3652 / RFU, ADSS / Fold change vs veh, ADSS / RFU, GK / Fold change vs veh, GK / RFU, ZNF148 / Fold change vs veh, ZNF148 / RFU, TAF9 / Fold change vs veh, TAF9 / RFU, SLC1A5 / Fold change vs veh, SLC1A5 / RFU, SLMO2 / Fold change vs veh, SLMO2 / RFU, ABCC4 / Fold change vs veh, ABCC4 / RFU, LOC101060439 /// RAP1B / Fold change vs veh, LOC101060439 /// RAP1B / RFU, RFX7 / Fold change vs veh, RFX7 / RFU, GTPBP10 / Fold change vs veh, GTPBP10 / RFU, CNEP1R1 / Fold change vs veh, CNEP1R1 / RFU, BIVM-ERCC5 /// ERCC5 / Fold change vs veh, BIVM-ERCC5 /// ERCC5 / RFU, ILF3 / Fold change vs veh, ILF3 / RFU 11762660_at / Fold change /veh 11762660_at / RFU VCAN (11757783_s_at) / Fold change /veh VCAN (11757783_s_at) / RFU DDX43 (11728927_at) / Fold change /veh DDX43 (11728927_at) / RFU KRT8 (11758188_x_at) / Fold change /veh KRT8 (11758188_x_at) / RFU NKD1 (11759106_at) / Fold change /veh NKD1 (11759106_at) / RFU SRD5A1 (11742802_a_at) / Fold change /veh SRD5A1 (11742802_a_at) / RFU TPSAB1 /// TPSB2 (11721975_s_at) / Fold change /veh TPSAB1 /// TPSB2 (11721975_s_at) / RFU GSTM3 (11746129_a_at) / Fold change /veh GSTM3 (11746129_a_at) / RFU IL23R (11737362_x_at) / Fold change /veh IL23R (11737362_x_at) / RFU TMEM51 (11727254_a_at) / Fold change /veh TMEM51 (11727254_a_at) / RFU PIWIL2 (11732686_x_at) / Fold change /veh PIWIL2 (11732686_x_at) / RFU ORM1 (11744905_x_at) / Fold change /veh ORM1 (11744905_x_at) / RFU CCDC152 (11743942_at) / Fold change /veh CCDC152 (11743942_at) / RFU ECM1 (11717891_a_at) / Fold change /veh ECM1 (11717891_a_at) / RFU IL23R (11748794_a_at) / Fold change /veh IL23R (11748794_a_at) / RFU TNFAIP8L3 (11732012_x_at) / Fold change /veh TNFAIP8L3 (11732012_x_at) / RFU MBOAT4 (11741988_at) / Fold change /veh MBOAT4 (11741988_at) / RFU 11764193_at / Fold change /veh 11764193_at / RFU TMEM53 (11763286_at) / Fold change /veh TMEM53 (11763286_at) / RFU MAGEB2 (11727129_at) / Fold change /veh MAGEB2 (11727129_at) / RFU TMEM200A (11744735_a_at) / Fold change /veh TMEM200A (11744735_a_at) / RFU CCDC152 (11751479_a_at) / Fold change /veh CCDC152 (11751479_a_at) / RFU FAM211A (11726209_a_at) / Fold change /veh FAM211A (11726209_a_at) / RFU RGS16 (11746705_a_at) / Fold change /veh RGS16 (11746705_a_at) / RFU VCAN (11755009_s_at) / Fold change /veh VCAN (11755009_s_at) / RFU RHOB (11743442_s_at) / Fold change /veh RHOB (11743442_s_at) / RFU RGS16 (11720943_a_at) / Fold change /veh RGS16 (11720943_a_at) / RFU RGS16 (11720944_at) / Fold change /veh RGS16 (11720944_at) / RFU, VPS4B / Fold change vs veh, VPS4B / RFU, CREB1 / Fold change vs veh, CREB1 / RFU, DNAJC13 / Fold change vs veh, DNAJC13 / RFU, GNAQ / Fold change vs veh, GNAQ / RFU, CDK5R1 / Fold change vs veh, CDK5R1 / RFU, ZRANB3 / Fold change vs veh, ZRANB3 / RFU, CUL4A / Fold change vs veh, CUL4A / RFU, CCNY / Fold change vs veh, CCNY / RFU, UFL1 / Fold change vs veh, UFL1 / RFU, COG3 / Fold change vs veh, COG3 / RFU, DIAPH2 / Fold change vs veh, DIAPH2 / RFU, SKA2 / Fold change vs veh, SKA2 / RFU, AFF3 / Fold change vs veh, AFF3 / RFU, LMF1 / Fold change vs veh, LMF1 / RFU, IPO11 / Fold change vs veh, IPO11 / RFU, DFFB / Fold change vs veh, DFFB / RFU, FOXP1 / Fold change vs veh, FOXP1 / RFU, CARD8 / Fold change vs veh, CARD8 / RFU, STRN3 / Fold change vs veh, STRN3 / RFU, ADK / Fold change vs veh, ADK / RFU, RASSF2 / Fold change vs veh, RASSF2 / RFU, WIPF1 / Fold change vs veh, WIPF1 / RFU, LARP1B / Fold change vs veh, LARP1B / RFU, RASA1 / Fold change vs veh, RASA1 / RFU, RB1 / Fold change vs veh, RB1 / RFU, PPFIA1 / Fold change vs veh, PPFIA1 / RFU, MAT2A / Fold change vs veh, MAT2A / RFU, CCT5 / Fold change vs veh, CCT5 / RFU, WDR92 / Fold change vs veh, WDR92 / RFU, CUX1 / Fold change vs veh, CUX1 / RFU, TTC7A / Fold change vs veh, TTC7A / RFU, TMEM135 / Fold change vs veh, TMEM135 / RFU, DEPTOR / Fold change vs veh, DEPTOR / RFU, CPM / Fold change vs veh, CPM / RFU, DNAJB6 / Fold change vs veh, DNAJB6 / RFU, CACNA2D3 / Fold change vs veh, CACNA2D3 / RFU, DTX4 / Fold change vs veh, DTX4 / RFU, TFCP2 / Fold change vs veh, TFCP2 / RFU, GMCL1 /// GMCL1P1 / Fold change vs veh, GMCL1 /// GMCL1P1 / RFU, AEBP2 / Fold change vs veh, AEBP2 / RFU, SNHG1 /// SNORD22 /// SNORD25 /// SNORD26 /// SNORD27 /// SNORD28 /// SNORD29 /// SNORD31 / Fold change vs veh, SNHG1 /// SNORD22 /// SNORD25 /// SNORD26 /// SNORD27 /// SNORD28 /// SNORD29 /// SNORD31 / Fold change (Aza/veh), C12orf56 (ProbeSet 11735607_a_at) / Fold change (ACY-1035/veh), C12orf56 (ProbeSet 11735607_a_at) / Fold change (Aza/veh), FGFR1OP (ProbeSet 11751329_s_at) / Fold change (ACY-1035/veh), FGFR1OP (ProbeSet 11751329_s_at) / Fold change (Aza/veh), VPS36 (ProbeSet 11739960_a_at) / Fold change (ACY-1035/veh), VPS36 (ProbeSet 11739960_a_at) / RFU SYPL1 (11715823_x_at) / Fold change /veh SYPL1 (11715823_x_at) / RFU IGFBP7 (11715501_s_at) / Fold change /veh IGFBP7 (11715501_s_at) / RFU REEP3 (11722064_at) / Fold change /veh REEP3 (11722064_at) / RFU IGLL1 (11728026_x_at) / Fold change /veh IGLL1 (11728026_x_at): dose or concentration left out as unconfirmed. The conditions noted are these: ProbeSet 11719817_x_at; LIST B.

Turning to `Nc1ccc(-c2cccs2)cc1NC(=O)c1ccc2c(c1)cc(C1CC1)n2CCN1CCOCC1` [ACY-1035], the “RFU, BET1” value was found to be 86.19 RFU.
